Laboratory results as given in patent publication US11141452B2, “Bifunctional compounds for relief of pain comprising an opioid receptor agonist moiety and a NK1 receptor antagonist moiety and methods for treating pain” (THE ARIZONA BOARD OF REGENTS ON BEHALF OF THE UNIVERSITY OF …, priority 2014, dated 2021).
Several values for one entry are separate records, joined by “and”; a condition that tells them apart may be missing. Equal values may be shown once. Non-standard residues stand in square brackets, D forms with d. Residues, ends and D or L forms follow the SMILES beside them. *: point of attachment. NH(3,5-(CF3)2-benzyl) = FC(F)(F)c1cc(CN*)cc(C(F)(F)F)c1; NMeBn(3,5-(CF3)2) = CN(Cc1cc(C(F)(F)F)cc(C(F)(F)F)c1)*; Dmt = Cc1cc(O)cc(C)c1C[C@H](N)C(=O)O; NMeF = CN[C@@H](Cc1ccccc1)C(=O)O; Orn = NCCC[C@H](N)C(=O)O

Experiments:
[1] = molecular target: MOR; test: Radioligand binding assay at μ opioid receptor; settings: for Log[IC50±] (μ): log IC50 ± error; for Ki^μ/Ki^δ: ratio of binding affinities MOR/DOR
Description: (§1) Binding affinities of these ligands were measured on radioligand binding assays. […] ([43]).

[2] = tested on: MOR; test: Guinea pig isolated ileum (GPI) functional assay; format: cell-based; settings: for IC50: agonist activity, electrically stimulated tissue, read-out: GPI (MOR) IC50
[3] = molecular target: T1, hNK1 (Homo sapiens, UniProt P25103); test: hNK1/CHO cell membrane radioligand binding assay ([3H]SP); settings: for Ki^hNK1/Ki^rNK1: ratio human/rat NK1; for Ki: Ki^hNK1 (nM), hNK1/CHO membranes, [3H]SP
T1 construct: expressed in transfected cells; host or cells: CHO

[4] = molecular target: DOR (Homo sapiens, UniProt P41143); test: Radioligand binding assay at δ opioid receptor; settings: for Ki: Ki^δ (nM)
Description: as §1

[5] = molecular target: T2, NK1R (Cavia porcellus, UniProt P30547); test: GPI/LMMP functional assay at NK1R (agonist and antagonist testing); format: cell-based, guinea pig; settings: for GPI/LMMP (NK1R) Agonist: agonist activity at the concentration in the cell
T2 construct: The longitudinal muscle with myenteric plexus (LMMP) was carefully separated from the circular muscle; from tissue; host or cells: guinea pig ileum longitudinal muscle with myenteric plexus
T2 sequence (P30547 whole entry): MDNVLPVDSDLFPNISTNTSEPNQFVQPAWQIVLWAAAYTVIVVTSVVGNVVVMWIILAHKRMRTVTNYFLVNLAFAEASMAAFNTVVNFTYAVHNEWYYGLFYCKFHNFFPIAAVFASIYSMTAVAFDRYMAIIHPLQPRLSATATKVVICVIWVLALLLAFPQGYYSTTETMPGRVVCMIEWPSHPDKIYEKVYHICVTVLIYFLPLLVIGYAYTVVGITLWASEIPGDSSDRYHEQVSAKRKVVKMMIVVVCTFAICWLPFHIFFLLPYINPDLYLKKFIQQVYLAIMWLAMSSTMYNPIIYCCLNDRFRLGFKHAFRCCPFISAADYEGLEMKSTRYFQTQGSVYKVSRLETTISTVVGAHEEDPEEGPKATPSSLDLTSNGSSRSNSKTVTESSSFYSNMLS

T1 sequence (P25103 whole entry): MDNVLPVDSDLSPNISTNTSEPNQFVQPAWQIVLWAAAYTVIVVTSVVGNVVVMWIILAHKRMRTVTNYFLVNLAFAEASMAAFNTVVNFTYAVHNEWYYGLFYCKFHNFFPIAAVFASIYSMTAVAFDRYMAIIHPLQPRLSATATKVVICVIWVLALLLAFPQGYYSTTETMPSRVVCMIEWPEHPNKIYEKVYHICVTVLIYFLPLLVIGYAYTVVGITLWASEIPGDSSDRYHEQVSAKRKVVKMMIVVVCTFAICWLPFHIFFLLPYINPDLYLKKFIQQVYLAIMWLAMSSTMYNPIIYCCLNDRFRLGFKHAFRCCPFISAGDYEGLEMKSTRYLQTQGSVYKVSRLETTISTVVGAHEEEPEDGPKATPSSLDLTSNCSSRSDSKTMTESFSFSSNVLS
DOR, sequence (P41143 whole entry): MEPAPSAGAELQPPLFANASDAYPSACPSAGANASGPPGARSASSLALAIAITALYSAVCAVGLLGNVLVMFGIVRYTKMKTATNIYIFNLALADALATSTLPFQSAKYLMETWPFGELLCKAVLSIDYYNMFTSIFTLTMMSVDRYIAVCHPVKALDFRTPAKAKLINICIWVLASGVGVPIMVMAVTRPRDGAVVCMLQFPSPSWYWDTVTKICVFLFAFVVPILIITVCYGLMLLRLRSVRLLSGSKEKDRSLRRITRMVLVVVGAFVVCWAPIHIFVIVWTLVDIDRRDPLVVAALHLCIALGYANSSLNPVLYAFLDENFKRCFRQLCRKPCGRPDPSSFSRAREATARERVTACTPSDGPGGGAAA

Cc1cc(O)cc(C)c1C[C@H](N)C(=O)N[C@H](C)C(=O)NCC(=O)N[C@@H](Cc1ccc(I)cc1)C(=O)N1CCC[C@H]1C(=O)N[C@@H](CC(C)C)C(=O)N[C@@H](Cc1c[nH]c2ccccc12)C(=O)NCc1cc(C(F)(F)F)cc(C(F)(F)F)c1 [AKG193, H-Dmt-D-Ala-Gly-Phe(4-I)-Pro-Leu-Trp-NH-Bn(3′,5′-(CF3)2)]
Ki [1]: 6 nM | Log[IC50±] (μ) [1]: −7.88 ± 0.07 | GPI (MOR) % at 1 uM ([2]; at 1 uM): 41% at 1 uM

Cc1cc(O)cc(C)c1C[C@H](N)C(=O)N(C)[C@H](C)C(=O)NCC(=O)N[C@@H](Cc1ccccc1)C(=O)N1CCC[C@H]1C(=O)N[C@@H](CC(C)C)C(=O)N[C@@H](Cc1c[nH]c2ccccc12)C(=O)NCc1cc(C(F)(F)F)cc(C(F)(F)F)c1 [AKG181, H-Dmt-D-NMeAla-Gly-Phe-Pro-Leu-Trp-NH-Bn(3′,5′-(CF3)2)]
Ki^hNK1/Ki^rNK1 [3]: 1/5

Cc1cc(O)cc(C)c1C[C@H](N)C(=O)N(C)[C@H](C)C(=O)N(C)CC(=O)N[C@@H](Cc1ccccc1)C(=O)N1CCC[C@H]1C(=O)N[C@@H](CC(C)C)C(=O)N[C@@H](Cc1c[nH]c2ccccc12)C(=O)NCc1cc(C(F)(F)F)cc(C(F)(F)F)c1 [AKG183, H-Dmt-D-NMeAla-NMeGly-Phe-Pro-Leu-Trp-NH-Bn(3′,5′-(CF3)2)]
Ki^hNK1/Ki^rNK1 [3]: 1/7

CSCC[C@H](NC(=O)[C@H](Cc1ccccc1)N(C)C(=O)CNC(=O)[C@@H](C)NC(=O)[C@@H](N)Cc1ccc(O)cc1)C(=O)N1CCC[C@H]1C(=O)N[C@@H](CC(C)C)C(=O)N[C@@H](Cc1c[nH]c2ccccc12)C(=O)NCc1cc(C(F)(F)F)cc(C(F)(F)F)c1 [AKG106]
Ki^hNK1/Ki^rNK1 [3]: 1/7

CC(C)C[C@H](NC(=O)[C@@H]1CCCN1C(=O)[C@H](CCC(N)=O)NC(=O)[C@H](Cc1ccccc1)N(C)C(=O)CNC(=O)[C@@H](C)NC(=O)[C@@H](N)Cc1ccc(O)cc1)C(=O)N[C@@H](Cc1c[nH]c2ccccc12)C(=O)NCc1cc(C(F)(F)F)cc(C(F)(F)F)c1 [AKG129]
Ki [1]: 7 nM | Log[IC50±] (μ) [1]: −7.84 ± 0.11

CC(C)C[C@H](NC(=O)[C@@H]1CCCN1C(=O)[C@H](CCCCN)NC(=O)[C@H](Cc1ccccc1)N(C)C(=O)CNC(=O)[C@@H](C)NC(=O)[C@@H](N)Cc1ccc(O)cc1)C(=O)N[C@@H](Cc1c[nH]c2ccccc12)C(=O)NCc1cc(C(F)(F)F)cc(C(F)(F)F)c1 [AKG174] (H-Y[dA]G[NMeF]KPLW-{NH(3,5-(CF3)2-benzyl)}; N-terminus assumed)
Ki [1]: 8 nM | Log[IC50±] (μ) [1]: −7.81 ± 0.08

CC(C)C[C@H](NC(=O)[C@@H]1CCCN1C(=O)[C@H](CCCN)NC(=O)[C@H](Cc1ccccc1)N(C)C(=O)CNC(=O)[C@@H](C)NC(=O)[C@@H](N)Cc1ccc(O)cc1)C(=O)N[C@@H](Cc1c[nH]c2ccccc12)C(=O)NCc1cc(C(F)(F)F)cc(C(F)(F)F)c1 [AKG173] (H-Y[dA]G[NMeF][Orn]PLW-{NH(3,5-(CF3)2-benzyl)})
Ki [1]: 5 nM | Log[IC50±] (μ) [1]: −7.95 ± 0.08 | Ki^μ/Ki^δ [1]: 100/1 | IC50 [4]: 501 nM | binding selectivity for DOR over MOR [4]: 100 times | Ki [4]: 0.05 nM | Ki [3]: 15.5 nM

CC(C)C[C@H](NC(=O)[C@@H]1CCCN1C(=O)[C@H](CCC(N)=O)NC(=O)[C@H](Cc1ccc(F)cc1)N(C)C(=O)CNC(=O)[C@@H](C)NC(=O)[C@@H](N)Cc1ccc(O)cc1)C(=O)N[C@@H](Cc1c[nH]c2ccccc12)C(=O)NCc1cc(C(F)(F)F)cc(C(F)(F)F)c1 [AKG143]
Ki [1]: 2 nM | Log[IC50±] (μ) [1]: −8.35 ± 0.07 | IC50 [4]: 1.45 nM | Ki [4]: 0.7 nM | Ki [3]: 3.2 nM

Cc1cc(O)cc(C)c1C[C@H](N)C(=O)N[C@H](C)C(=O)NCC(=O)N(C)[C@@H](Cc1ccc(F)cc1)C(=O)N[C@@H](CCC(N)=O)C(=O)N1CCC[C@H]1C(=O)N[C@@H](CC(C)C)C(=O)N[C@@H](Cc1c[nH]c2ccccc12)C(=O)NCc1cc(C(F)(F)F)cc(C(F)(F)F)c1 [AKG144]
Ki [1]: 0.5 nM | Log[IC50±] (μ) [1]: −8.94 ± 0.07 | IC50 [4]: 0.437 nM | Ki [4]: 0.2 nM

Cc1cc(O)cc(C)c1C[C@H](N)C(=O)N(C)[C@H](C)C(=O)NCC(=O)N(C)[C@@H](Cc1ccccc1)C(=O)N1CCC[C@H]1C(=O)N[C@@H](CC(C)C)C(=O)N[C@@H](Cc1c[nH]c2ccccc12)C(=O)NCc1cc(C(F)(F)F)cc(C(F)(F)F)c1 [AKG184, H-Dmt-D-NMeAla-Gly-NMePhe-Pro-Leu-Trp-NH-Bn(3′,5′-(CF3)2)]
Ki^hNK1/Ki^rNK1 [3]: 1/40

Cc1cc(O)cc(C)c1C[C@H](N)C(=O)N[C@H](C)C(=O)NCC(=O)N(C)[C@@H](Cc1ccccc1)C(=O)N[C@@H](CCC(N)=O)C(=O)N1CCC[C@H]1C(=O)N[C@@H](CC(C)C)C(=O)N[C@@H](Cc1c[nH]c2ccccc12)C(=O)NCc1cc(C(F)(F)F)cc(C(F)(F)F)c1 [AKG141]
Ki^hNK1/Ki^rNK1 [3]: 1/10

CC(C)C[C@H](NC(=O)[C@@H]1CCCN1C(=O)[C@H](Cc1ccc(O)cc1)NC(=O)CNC(=O)[C@H](Cc1ccccc1)NC(=O)[C@@H](C)NC(=O)[C@@H](N)Cc1ccc(O)cc1)C(=O)N[C@@H](Cc1c[nH]c2ccccc12)C(=O)N(C)Cc1cc(C(F)(F)F)cc(C(F)(F)F)c1 [QXP04] (H-Y[dA]FGYPLW-{NMeBn(3,5-(CF3)2)})
Ki [1]: 10 nM | Log[IC50±] (μ) [1]: −7.66 ± 0.05 | Ki^μ/Ki^δ [1]: 1/7 | GPI/MVD IC50 ratio [2]: 23/1 | IC50 [2]: 389 ± 180 nM | GPI/LMMP (NK1R) Agonist [5]: None at 1 uM

CC(C)C[C@H](NC(=O)[C@@H]1CCCN1C(=O)[C@H](Cc1ccccc1)N(C)C(=O)[C@H](Cc1ccccc1)NC(=O)[C@@H]1CCCN1C(=O)[C@@H](N)Cc1ccc(O)cc1)C(=O)N[C@@H](Cc1c[nH]c2ccccc12)C(=O)NCc1cc(C(F)(F)F)cc(C(F)(F)F)c1 [AKG224, H-Tyr-Pro-Phe-NMePhe-Pro-Leu-Trp-NH-Bn(3′,5′-(CF3)2)] (H-YPF[NMeF]PLW-{NH(3,5-(CF3)2-benzyl)})
Ki^hNK1/Ki^rNK1 [3]: 1/10

Cc1cc(O)cc(C)c1C[C@H](N)C(=O)N[C@H](C)C(=O)N(C)CC(=O)N[C@@H](Cc1ccccc1)C(=O)N1CCC[C@H]1C(=O)N[C@@H](CC(C)C)C(=O)N[C@@H](Cc1c[nH]c2ccccc12)C(=O)NCc1cc(C(F)(F)F)cc(C(F)(F)F)c1 [AKG180, H-Dmt-D-Ala-NMeGly-Phe-Pro-Leu-Trp-NH-Bn(3′,5′-(CF3)2)]
Ki^hNK1/Ki^rNK1 [3]: 1/6

CC(C)C[C@H](NC(=O)[C@@H]1CCCN1C(=O)CCNC(=O)[C@H](Cc1ccccc1)N(C)C(=O)CNC(=O)[C@@H](C)NC(=O)[C@@H](N)Cc1ccc(O)cc1)C(=O)N[C@@H](Cc1c[nH]c2ccccc12)C(=O)NCc1cc(C(F)(F)F)cc(C(F)(F)F)c1 [AKG119, H-Tyr-D-Ala-Gly-NMePhe-β-Ala-Pro-Leu-Trp-NH-Bn(3′,5′-(CF3)2)]
Ki [1]: 8 nM | Log[IC50±] (μ) [1]: −7.76 ± 0.11 | Ki^hNK1/Ki^rNK1 [3]: 1/32 | GPI/MVD IC50 ratio [2]: 10/1 | IC50 [2]: 365 ± 186 nM | GPI/LMMP (NK1R) Agonist [5]: None at 100 nM

Cc1cc(O)cc(C)c1C[C@H](N)C(=O)N[C@H](C)C(=O)NCC(=O)N[C@@H](Cc1ccc(Br)cc1)C(=O)N1CCC[C@H]1C(=O)N[C@@H](CC(C)C)C(=O)N[C@@H](Cc1c[nH]c2ccccc12)C(=O)NCc1cc(C(F)(F)F)cc(C(F)(F)F)c1 [AKG192, H-Dmt-D-Ala-Gly-Phe(4-Br)-Pro-Leu-Trp-NH-Bn(3′,5′-(CF3)2)]
Ki [1]: 5 nM | Log[IC50±] (μ) [1]: −7.96 ± 0.12 | IC50 [2]: 463 ± 114 nM | Kb ([5]; GPI/LMMP (NK1R) Ke (nM) ± S.E.M., antagonist activity): 23.4 ± 8.9 nM

CC(C)C[C@H](NC(=O)[C@@H]1CCCN1C(=O)[C@@H](CCC(N)=O)NC(=O)[C@H](Cc1ccccc1)NC(=O)CNC(=O)[C@@H](C)NC(=O)[C@@H](N)Cc1ccc(O)cc1)C(=O)N[C@@H](Cc1c[nH]c2ccccc12)C(=O)NCc1cc(C(F)(F)F)cc(C(F)(F)F)c1 [AKG103]
Ki [1]: 120 nM and 116 nM | Log[IC50±] (μ) [1]: −6.57 ± 0.05 | IC50 [4]: 155 nM | Ki [4]: 72 nM | Ki [3]: 2.1 nM

CSCC[C@H](NC(=O)[C@H](Cc1ccccc1)N(C)C(=O)CNC(=O)[C@@H](C)NC(=O)[C@@H](N)Cc1c(C)cc(O)cc1C)C(=O)N1CCC[C@H]1C(=O)N[C@@H](CC(C)C)C(=O)N[C@@H](Cc1c[nH]c2ccccc12)C(=O)NCc1cc(C(F)(F)F)cc(C(F)(F)F)c1 [AKG107]
Ki^hNK1/Ki^rNK1 [3]: 1/7

Cc1cc(O)cc(C)c1C[C@H](N)C(=O)N(C)[C@H](C)C(=O)N(C)CC(=O)N(C)[C@@H](Cc1ccccc1)C(=O)N1CCC[C@H]1C(=O)N[C@@H](CC(C)C)C(=O)N[C@@H](Cc1c[nH]c2ccccc12)C(=O)NCc1cc(C(F)(F)F)cc(C(F)(F)F)c1 [AKG185, H-Dmt-D-NMeAla-NMeGly-NMePhe-Pro-Leu-Trp-NH-Bn(3′,5′-(CF3)2)]
Ki^hNK1/Ki^rNK1 [3]: 1/21

CC(C)C[C@H](NC(=O)[C@@H]1CCCN1C(=O)[C@H](CCC(N)=O)NC(=O)[C@H](Cc1ccc(F)cc1)NC(=O)CNC(=O)[C@@H](C)NC(=O)[C@@H](N)Cc1ccc(O)cc1)C(=O)N[C@@H](Cc1c[nH]c2ccccc12)C(=O)NCc1cc(C(F)(F)F)cc(C(F)(F)F)c1 [AKG142]
Ki [1]: 8 nM | Log[IC50±] (μ) [1]: −7.67 ± 0.07 | IC50 [4]: 3.39 nM | Ki [4]: 2 nM

Cc1cc(O)cc(C)c1C[C@H](N)C(=O)N[C@H](C)C(=O)N[C@@H](Cc1ccccc1)C(=O)NCC(=O)N[C@@H](Cc1ccc(O)cc1)C(=O)N1CCC[C@H]1C(=O)N[C@@H](CC(C)C)C(=O)N[C@@H](Cc1c[nH]c2ccccc12)C(=O)NCc1cc(C(F)(F)F)cc(C(F)(F)F)c1 [AKG118] (H-[Dmt][dA]FGYPLW-{NH(3,5-(CF3)2-benzyl)})
Ki [1]: 1 nM | Log[IC50±] (μ) [1]: −8.65 ± 0.12 | Ki^μ/Ki^δ [1]: 1/3 | Ki^hNK1/Ki^rNK1 [3]: 1/11
